Results from patent US11015179B2, “Peptide having anti-viral effect and composition containing same” (priority 2015, dated 2021).

Tests used:
JFH-1 cells = assay: Intracellular ROS production (DCF-DA) in JFH-1 cells; assay type: cell-based, human; conditions: for ROS production: 2 hours, PEP1 0.001-10 μM, NAC, PDTC 100 μM, vitamin E 10 μM, vs vehicle
Procedure: One day after 5×10^4 (cells/well) cells of the JFH-1 cell line were seeded into a 24-well plate, intracellular ROS production was measured according to various experimental materials. Measurement of intracellular activity was carried out by staining the cells with dichlorodihydrofluoresein diacetate (DCF-DA; Invitrogen), and fluorescence measurement of ROS production was carried out at […] using Infinte M2000 Tecan (Tecan Trading AG, Switzerland). All fluorescent units were expressed as arbitrary units, and as a positive control group, hydrogen peroxide (H2O2, 2 mM) was used. ROS measurement for the Huh7.5 cells was also carried out by the same procedure as described above.
As a control group, a human HCC cell line, and Huh7.5 and JFH-1 cell lines were treated with known representative antioxidants such as NAC (2 Mm), PDTC (100 μM), and vitamin E (10 μM) and then compared.
The inventors inhibited the interaction with HSP90 by two methods: a use of antibodies against […] and antibodies against HSP90 or a use of an inhibitor occupying a catalytic position (ATP-binding pocket in the N-terminal of HSP90).

HCV = assay: Quantitative PCR of HCV NS2 transcript in JFH-1 cells; assay type: cell-based, Hepatitis C virus (HCV2a JFH-1); conditions: 48 hours, vs vehicle, PEP1 until 10 μM, NAC 20 mM, PDTC 100 μM, vitamin E 10 μM
Procedure: A cell line used in the example relating to the HCV antiviral effect of PEP1 according to an aspect of the present invention, such as, human hepatocellular carcinoma (Huh7.5) was purchased from the American Type Culture Collection (ATCC; Manassas, Va., USA), and a JFH-1 cell line was constructed using HCV2a JFH-1 clones provided from Dr. Wakita (Tokyo Metropolitan Institute for Neuroscience, Tokyo, Japan) in the Huh7.5 cell line. All of the cell lines were cultured in a Dulbecco's modified Eagle's medium (DMEM) containing 10% FBS and 1% antibiotics.
A HCV RNA level was detected though quantitative PCR using primers for a NS2 gene. To measure the level of HCV RNA in the supernatant of cell culture, RNA was extracted from 100 μl of the cell culture using a QIAamp Viral RNA Mini kit (Qiagen). The extracted RNA was used in cDNA synthesis using a transcript first strand cDNA synthesis supermix kit (Roche Applied Science). PCR was carried out using a 1×SYBR Green mix (Qiagen). For real-time PCR, an NS2 forward primer 5′-[…]-3′ (SEQ ID NO: 3) and a reverse primer 5′-[…]-3′ (SEQ ID NO: 4) were purchased from Bioneer Co. For quantitative PCR, a 7900HT Fast real-time PCR system (Applied Biosystems, Foster City, Calif., USA) was used.
According to the methods described in the experiments and the analysis methods, to investigate whether PEP1 inhibits the replication of one HCV RNA such as NS2, the transcript of NS2 was measured.

p38, JNK and ERK = assay: Immunoblotting of MAPK signaling factors in JFH-1 cells; assay type: cell-based, human; conditions: 2 hours, vitamin E 10 μM
Procedure: Proteins were acquired from cells using a lysis solution (Cell Signaling Technology, Danvers, Mass., USA) containing a proteinase inhibitors cocktail (Roche, Basel, Switzerland) and a phosphatase inhibitor (Roche). To remove debris, which remained after cell lysis, the cells were centrifuged for 10 minutes at 4° C. 50 μg of the proteins were analyzed through 12% sodium dodecyl sulfate-polyacrylamide gel electrophoresis (SDS-PAGE), and then transferred to a polyvinylidene difluoride membrane (PVDF; Millipore, Bedford, Mass., USA). The transferred membrane was developed using an ImageQuant™ LAS 4000 mini biomolecular imager (GE Healthcare Bio-Sciences AB, Sweden), after antibodies against HSP90, p38, p-p38 (Thr180/Tyr182), JNK, p-JNK (Thr183/Tyr185), ERK, p-ERK (Thr202/Tyr204), and zinc-copper containing enzyme SOD (CuZn-SOD) and manganese-SOD (Mn-SOD) as superoxide dismutase oxidases (SODs), and GAPDH (all of them were purchased from Cell Signaling Technology and Santa Cruz Biotechnology) were attached to the membrane and then visualized by a SuperSignal West Pico chemiluminescence substrate (Pierce, Rockford, USA). β-actin was used for normalization using a Multi Gauge V 3.0 (Fuji Film, Japan), and quantitative analysis was carried out by densitometry. […]

[1] = test system: HSP90 (extracellular HSP90, eHSP90); assay: Extracellular HSP90 detection by ELISA in JFH-1 culture supernatant; assay type: cell-based, human; conditions: JFH-1 cells, PDTC 100 μM, 2 hours, vs control
Procedure: The Huh7.5 and JFH-1 cell lines were treated with an oxidant (H2O2, 2 mM) and an antioxidant, PDTC (100 μM), for two hours. HSP90 (extracellular HSP90, eHSP90) in the supernatant of a culture was detected by ELISA (R&D Systems, Minneapolis, Minn., USA) according to the manufacturer's instructions.

HIV-1 [2] = conditions: characteristics of control anti-HIV drugs stated as well known; cited from earlier work
HIV-1 [3] = conditions: ACH-2 cells, RT-qPCR, stepwise increasing concentrations
Procedure: That is, ACH-2 cells, that is, cells latently-infected with HIV-1, were stimulated with PMA (50 nM) to induce reactivation of HIV-1 for 1 hour. […] A production level of viral particles in the supernatant was determined by p24 ELISA.
The levels of viral genomic RNA of the produced viral particles were determined by RT-qPCR.

[4] = test system: HIV-1 Tat transactivation; assay: HIV-LTR-luciferase assay in 1G5 cells transfected with Tat plasmids; assay type: cell-based; conditions: four days
Procedure: An HIV-1 transactivation protein (Tat) is a regulatory protein dramatically enhancing HIV-1 transcription through the interaction with the tat-transcriptional active region (TAR). […] In the present invention, as a Jurkat-derived cell line, 1G5 containing a stably-inserted HIV-LTR-luciferase construct was used.
The 1G5 cells were transfected with Tat plasmids. […] Four days after the infection, the transactivation of HIV-LTR was analyzed through a luciferase assay.

[5] = test system: HIV-1-infected MT-4 cells; assay: Cell protective effect from HIV-1-induced cell death in MT-4 cells; assay type: cell-based, human; conditions: 5 days
Procedure: MT-4, 1G5 or ACH-2 cells were seeded in a 96-well microplate at a density of 1×10^4 cells/well, and incubated with increasing concentrations of PEP1 for 5 days. Cell viability was determined by colorimetry using a CellTiter96 Aqueous One Solution assay kit (Promega, Wis.) according to the manufacturer's instructions. To assess the cell protective effect of PEP1 from HIV-1-induced cell death, MT-4 cells (1×10^4) were infected with the HIV-1 virus (4×10^5 CCID50) for 5 days with or without PEP1, and subjected to a cell viability assay.
It has been known that apoptosis of HIV-infected cells occurs by an intracellular cell death mechanism.

HIV-1 [6] = conditions: MT-4 cells
Procedure: The MT-4 cells (4×10^5 cells) were infected with HIV-1 (4×10^5 50% cell culture infective dose (CCID50)) for one hour. […] After two days of incubation, images of the MT-4 cells expressing eGFP were obtained using a fluorescence microscope before harvesting the cells. To remove cell debris, the collected supernatant was subjected to centrifugation at 13,000 rpm for 3 minutes, and to measure an extracellular viral amount, p24 ELISA or RNA extraction was performed for a reverse transcription-quantitative polymerase chain reaction (RT-qPCR). Meanwhile, the cell pellets were washed with D-PBS twice, and used for a cell viability assay. […] HIV-1 replication was analyzed by p24 ELISA, and eGFP was monitored using a fluorescent microscope.
To measure HIV-1 virus titers, HIV-1 p24 antigen capture ELISA (p24 ELISA, ABL) and RT-qPCT assay were performed according to the manufacturer's instructions. HIV-1 RNA genomes were purified from the cell culture supernatants and pellets using a QIAamp Ultrasens Virus kit (Qiagen, Hilden, Germany) according to the manufacturer's instructions. The HIV-1 RNA levels were quantified by RT-qPCR using a primer pair specific to gag of HIV-1. Glyceraldehyde phosphate dehydrogenase (GAPDH) was used as a reference gene for normalization. […]

NF-κB = NF-κB dual-luciferase assay in MT-4 cells; assay type: cell-based, human; conditions: 24 hours
Source text: NF-κB triggers HIV transcription by interacting with an NF-κB-binding site in HIV-LTR, and increases the activation of TAT-mediated LTR […]. In addition, Tat can directly activate NF-κB. Recently, there have been studies showing that eHSP90 can regulate various intracellular signaling pathways, including the NF-κB pathway.

Compound: vitamin E
- ROS production (JFH-1 cells): induced a decrease in ROS production
- NS2 transcription (HCV RNA replication) (HCV): do not inhibit the NS2 transcription at all
- ERK activity (p38, JNK and ERK): increased

Compound: CC(=O)N[C@@H](CS)C(=O)O [NAC, N-acetylcysteine]
- ROS production (JFH-1 cells): induced a decrease in ROS production
- NS2 transcription (HCV RNA replication) (HCV): do not inhibit the NS2 transcription at all

Compound: S=C(S)N1CCCC1 [PDTC, pyrolidine dithiocarbamate]
- ROS production (JFH-1 cells): induced a decrease in ROS production
- ROS production in the presence of KNK and 17AAG (JFH-1 cells; PDTC): inhibits ROS production in the presence of both of KNK and 17AAG
- ROS production with HSP70/HSP90 blocking antibodies (JFH-1 cells; PDTC): inhibits ROS production regardless of blocking of HSP70 and HSP90
- eHSP90 level [1]: produced at a lower level than the control group
- NS2 transcription (HCV RNA replication) (HCV): do not inhibit the NS2 transcription at all

Compound: CC(C)c1nc(CN(C)C(=O)N[C@H](C(=O)N[C@@H](Cc2ccccc2)C[C@H](O)[C@H](Cc2ccccc2)NC(=O)OCc2cncs2)C(C)C)cs1 [Ritonavir]
- Time of treatment at which the control drug inhibits HIV proliferation (HIV-1 [2]): up to 15 hours

Compound: Cc1cn([C@H]2C[C@H](N=[N+]=[N-])[C@@H](CO)O2)c(=O)[nH]c1=O [AZT, 3-azido-3-deoxythymidine]
- Viral genomic RNA of produced viral particles after PMA (HIV-1 [3]): did not change the PMA effect
- HIV-LTR luciferase activity activated by ectopic expression of Tat [4]: did not inhibit
- Cell protective effect [5]: considerable cell protective effects in a dose-dependent manner
- Inhibition of eGFP expression after anti-HSP90 antibodies (HIV-1 [6]; fluorescence / immunoblotting): an effect of AZT was not obtained
- Inhibition of HIV-1 production after anti-HSP90 neutralization antibodies (HIV-1 [6]; p24 ELISA): no influence
- NF-κB activity in HIV-1-infected MT-4 cells (NF-κB): medium level of inhibitory effect
- Basal NF-κB activity (NF-κB; MT-4 cells): no significant effect

Compound: C=CCNC1=C2C[C@@H](C)C[C@H](OC)[C@H](O)[C@@H](C)/C=C(\C)[C@H](OC(N)=O)[C@@H](OC)/C=C\C=C(/C)C(=O)NC(=CC1=O)C2=O [17AAG, 17-N-Allylamino-17-demethoxy geldanamycin]
- Change in ROS caused by HSP inhibitor (JFH-1 cells; 17AAG 1 μM, KNK 10 μM): the ROS inhibitory effect was exhibited
